According to ChEMBL document CHEMBL1122453, “Structure-activity relationships in the antiinflammatory steroids: a pattern-recognition approach” (1983):
Active and inactive are the calls of the source. The rule behind the calls is not given here.

Species on record: Homo sapiens
Assay: PPotency relative to fluocinolone 16,17-acetonide(Experimental vasoconstictor activity) in human; NA= Not active
Type: functional, organism-based
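For PPotency in this document: experimental vasoconstrictor activity measured in humans, expressed as potency versus the reference steroid fluocinolone 16,17-acetonide.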

SMILES | Potency
CC1(C)O[C@@H]2CC3C4CCC5=CC(=O)C=CC5(C)C4[C@@H](O)CC3(C)[C@]2(C(=O)CCl)O1 (stereo not given in full) | inactive

Species on record: Homo sapiens
Assay: Potency relative to fluocinolone 16,17-acetonide(Experimental vasoconstictor activity) in human; 900-1080
Type: functional

SMILES | Potency
CCCC(=O)O[C@]1(C(C)=O)CCC2C3C[C@H](F)C4=CC(=O)C=CC4(C)[C@@]3(F)C(O)CC21C (stereo not given in full) | 900

Species on record: Homo sapiens
Assay: Potency relative to fluocinolone 16,17-acetonide(Experimental vasoconstictor activity) in human
Type: functional

SMILES | Potency
CC1(C)O[C@@H]2C[C@H]3[C@@H]4C[C@H](F)C5=CC(=O)C=C[C@]5(C)[C@@]4(F)[C@@H](O)C[C@]3(C)[C@]2(C(=O)CO)O1 [FLUOCINOLONE ACETONIDE] | 100

Species on record: Homo sapiens
Assay: Potency relative to fluocinolone 16,17-acetonide(Experimental vasoconstictor activity)in human; NA= Not active
Type: functional, organism-based

SMILES | Potency
C[C@@H]1C[C@H]2[C@@H]3C[C@H](F)C4=CC(=O)C=C[C@]4(C)[C@H]3[C@@H](O)C[C@]2(C)[C@H]1C(=O)CO [FLUOCORTOLONE] | inactive
CCCCC(=O)OCC(=O)[C@H]1[C@H](C)C[C@H]2[C@@H]3C[C@H](F)C4=CC(=O)C=C[C@]4(C)[C@@]3(F)[C@@H](O)C[C@@]21C | inactive

Species on record: Homo sapiens

SMILES | Potency
CC12CCC(=O)C=C1CCC1C2[C@@H](O)CC2(C)C1CC[C@]2(O)C(=O)OCCl (stereo not given in full) | inactive
CCC(=O)O[C@]1(C(=O)OCCl)CCC2C3CCC4=CC(=O)CCC4(C)C3[C@@H](O)CC21C (stereo not given in full) | inactive
CCC(=O)[C@@]1(C)[C@H](C)CC2C3CCC4=CC(=O)C=C[C@]4(C)C3[C@@H](O)C[C@@]21C (stereo not given in full) | inactive
CC1(C)O[C@@H]2CC3C4C[C@H](F)C5=CC(=O)C=CC5(C)[C@@]4(F)[C@@H](O)CC3(C)[C@]2(C(=O)C(=O)OCCl)O1 (stereo not given in full) | inactive
C[C@@H]1CC2C3C[C@H](F)C4=CC(=O)C=CC4(C)[C@@]3(F)C(O)CC2(C)C1C(=O)COC(=O)C(C)(C)C (stereo not given in full) | inactive
C[C@H]1CC2C3CCC4=CC(=O)C=CC4(C)[C@@]3(F)[C@@H](O)CC2(C)[C@@]1(O)C(=O)CCl (stereo not given in full) | inactive
C[C@@H]1CC2C3C[C@H](Cl)C4=CC(=O)C=CC4(C)C3C(O)CC2(C)C1C(=O)COC(=O)C(C)(C)C (stereo not given in full) | inactive
C[C@@H]1C[C@H]2[C@@H]3C[C@H](F)C4=CC(=O)C=C[C@]4(C)[C@H]3[C@@H](O)C[C@]2(C)[C@@]1(O)C(=O)CO [PARAMETHASONE] | inactive
CC1(C)O[C@@H]2C[C@H]3[C@@H]4CCC5=CC(=O)CC[C@]5(C)[C@@]4(F)[C@@H](O)C[C@]3(C)[C@]2(C(=O)CCl)O1 [HALCINONIDE] | inactive
CC1(C)O[C@@H]2CC3C4CCC5=CC(=O)CCC5(C)C4[C@@H](O)CC3(C)[C@]2(C(=O)CCl)O1 (stereo not given in full) | inactive
CCCC(=O)OCC(=O)[C@@]1(OC(C)=O)CCC2C3C[C@H](F)C4=CC(=O)C=CC4(C)[C@@]3(F)C(O)CC21C (stereo not given in full) | inactive
CC1CC2C3CCC4=CC(=O)C=CC4(C)[C@@]3(F)C(O)CC2(C)[C@@]1(O)C(=O)COP(=O)(O)O (stereo not given in full) | inactive
CC(=O)OCC(=O)[C@]1(O)C2(C)C[C@H](O)C3C(CCC4=CC(=O)C=CC43C)C2C[C@@]1(C)O (stereo not given in full) | inactive
CCC(=O)O[C@]1(C(=O)C(=O)OCCl)CC[C@H]2C3CCC4=CC(=O)CCC4(C)C3[C@@H](O)CC21C (stereo not given in full) | inactive
C[C@@H]1CC2C3CCC4=CC(=O)C=CC4(C)[C@@]3(F)C(O)CC2(C)C1C(=O)CO (stereo not given in full) [DEOXYMETHASONE] | inactive
CC(=O)O[C@]1(C(=O)CO)CCC2C3CCC4=CC(=O)CCC4(C)C3C(O)CC21C (stereo not given in full) | inactive
C[C@@H]1CC2C3CCC4=CC(=O)C=CC4(C)[C@@]3(F)[C@@H](O)CC2(C)[C@@]1(C)C(=O)CO (stereo not given in full) | inactive
CCCCC(=O)O[C@]1(C(=O)COC(C)=O)CCC2C3CCC4=CC(=O)C=CC4(C)C3C(O)CC21C (stereo not given in full) | inactive
CCC(=O)OCC(=O)C1(C)C(C)CC2C3CCC4=CC(=O)C=CC4(C)[C@@]3(F)CCC21C (stereo not given in full) | inactive

Species on record: Homo sapiens
Assay: Potency relative to fluocinolone 16,17-acetonide(Experimental vasoconstictor activity) in human; 15-45
Type: functional

SMILES | Potency
C[C@]12C=CC(=O)C=C1[C@@H](F)C[C@H]1[C@@H]3C[C@@H](O)[C@](O)(C(=O)CO)[C@@]3(C)C[C@H](O)[C@@]12F [FLUOCINOLONE] | 15

Species on record: Homo sapiens
Assay: Potency relative to fluocinolone 16,17-acetonide(Experimental vasoconstictor activity) in human;NA = Not active
Type: functional, organism-based

SMILES | Potency
CC(=O)OCC(=O)[C@@]1(O)[C@H](C)CC2C3C[C@H](F)C4=CC(=O)C=CC4(C)C3C(O)CC21C (stereo not given in full) | inactive

Species on record: Rattus norvegicus
Assay: Experimental relative rat granuloma activity (relative to hydrocortisone and hydrocortisone 21-acetate); 0.15-0.5
Type: functional

SMILES | Potency
CC(=O)OCC(=O)[C@@]1(O)CCC2C3CCC4=CC(=O)CCC4(C)[C@@]3(Cl)[C@@H](Cl)CC21C (stereo not given in full) | 0.15
CC(=O)OCC(=O)[C@@]1(O)CCC2C3CCC4=CC(=O)C=CC4(C)C3[C@@H](Cl)CC21C (stereo not given in full) | 0.15

Species on record: Homo sapiens
Assay: Potency relative to fluocinolone 16,17-acetonide(Experimental vasoconstictor activity) in human; 16-34
Type: functional

SMILES | Potency
CCCCC(=O)O[C@]1(C(=O)CO)CCC2C3CCC4=CC(=O)CCC4(C)C3C(O)CC21C (stereo not given in full) | 16

Species on record: Rattus norvegicus
Assay: Anti-inflammatory effect in rat granuloma assay, activity relative to hydrocortisone and hydrocortisone 21-acetate
Type: functional

SMILES | Potency
CC1(C)O[C@@H]2C[C@H]3[C@@H]4CCC5=CC(=O)C=C[C@]5(C)[C@H]4[C@@H](O)C[C@]3(C)[C@]2(C(=O)CO)O1 [DESONIDE] | 66.2
C[C@@H]1C[C@H]2[C@@H]3C[C@H](F)C4=CC(=O)C=C[C@]4(C)[C@H]3[C@@H](O)C[C@]2(C)[C@H]1C(=O)CO [FLUOCORTOLONE] | 350
C[C@@H]1C[C@H]2[C@@H]3C[C@H](F)C4=CC(=O)C=C[C@]4(C)[C@H]3[C@@H](O)C[C@]2(C)[C@@]1(O)C(=O)CO [PARAMETHASONE] | 63.6
CC1(C)O[C@@H]2C[C@H]3[C@@H]4C[C@H](F)C5=CC(=O)C=C[C@]5(C)[C@@]4(F)[C@@H](O)C[C@]3(C)[C@]2(C(=O)CO)O1 [FLUOCINOLONE ACETONIDE] | 450
C[C@H]1C[C@H]2[C@@H]3CCC4=CC(=O)C=C[C@]4(C)[C@@]3(F)[C@@H](O)C[C@]2(C)[C@@]1(O)C(=O)CO [BETAMETHASONE] | 35.8
CC(=O)OCC(=O)[C@@]1(O)[C@H](C)CC2C3C[C@H](F)C4=CC(=O)C=CC4(C)C3C(O)CC21C (stereo not given in full) | 60
C[C@@H]1CC2C3CCC4=CC(=O)C=CC4(C)[C@@]3(F)C(O)CC2(C)C1C(=O)CO (stereo not given in full) [DEOXYMETHASONE] | 10
CC(=O)OCC(=O)[C@@]1(O)CC[C@H]2[C@@H]3CCC4=CC(=O)C=C[C@]4(C)[C@H]3[C@@H](O)C[C@@]21C [PREDNISOLONE ACETATE] | 3
C[C@]12C=CC(=O)C=C1[C@@H](F)C[C@H]1[C@@H]3C[C@@H](O)[C@](O)(C(=O)CO)[C@@]3(C)C[C@H](O)[C@@]12F [FLUOCINOLONE] | 19.7

Species on record: Homo sapiens
Assay: Potency relative to fluocinolone 16,17-acetonide(Experimental vasoconstictor activity) in human; 100-300
Type: functional

SMILES | Potency
CC1(C)O[C@@H]2C[C@H]3[C@@H]4C[C@H](F)C5=CC(=O)CC[C@]5(C)[C@H]4[C@@H](O)C[C@]3(C)[C@]2(C(=O)CO)O1 [FLURANDRENOLIDE] | 100

Species on record: Homo sapiens
Assay: Potency relative to fluocinolone 16,17-acetonide in the human vasoconstictor test
Type: functional

SMILES | Potency
CC1(C)O[C@@H]2C[C@H]3[C@@H]4C[C@H](F)C5=CC(=O)CC[C@]5(C)[C@H]4[C@@H](O)C[C@]3(C)[C@]2(C(=O)CO)O1 [FLURANDRENOLIDE] | 12
CC1(C)O[C@@H]2C[C@H]3[C@@H]4CCC5=CC(=O)CC[C@]5(C)[C@@]4(F)[C@@H](O)C[C@]3(C)[C@]2(C(=O)CCl)O1 [HALCINONIDE] | >360
C[C@H]1C[C@H]2[C@@H]3CCC4=CC(=O)C=C[C@]4(C)[C@@]3(F)[C@@H](O)C[C@]2(C)[C@@]1(O)C(=O)CO [BETAMETHASONE] | 0.8
CC(=O)OCC(=O)[C@@]1(O)CC[C@H]2[C@@H]3CCC4=CC(=O)C=C[C@]4(C)[C@H]3[C@@H](O)C[C@@]21C [PREDNISOLONE ACETATE] | 1

Species on record: Rattus norvegicus
Assay: Experimental relative rat granuloma activity (relative to hydrocortisone and hydrocortisone 21-acetate); 200-500
Type: functional

SMILES | Potency
C[C@@H]1C[C@H]2[C@@H]3C[C@H](F)C4=CC(=O)C=C[C@]4(C)[C@@]3(F)[C@@H](O)C[C@]2(C)[C@@]1(O)C(=O)CO [FLUMETHASONE] | 200

Species on record: Homo sapiens
Assay: Potency relative to fluocinolone 16,17-acetonide(Experimental vasoconstictor activity) in human;NA =Not active
Type: functional, organism-based

SMILES | Potency
CC1(C)O[C@@H]2C[C@H]3[C@@H]4CCC5=CC(=O)C=C[C@]5(C)[C@H]4[C@@H](O)C[C@]3(C)[C@]2(C(=O)CO)O1 [DESONIDE] | inactive
